Values joined by “and” are separate entries in the source; they are usually repeats but may differ in a detail not shown here. Equal entries are not always repeated. Structures can show the parent of a compound that is named as a salt. Where two headings read alike, the source gives them in different places.
Experiments:
hERG ion channel = target: T1, hERG ion channel (Homo sapiens, UniProt Q12809); assay: Population Patch Clamp (PPC) hERG assay in CHO K1 cells; assay type: cell-based
T1 construct: expressed in transfected cells; host or cells: CHO K1
Protocol: Inhibition of the hERG channel was measured by automated patch clamp assay in CHO K1 cells, stably transfected with the hERG ion channel. PPC measurements were performed using an IonWorks Quattro instrument (Molecular Devices Corporation, Union City, CA) using a 384 well PatchPlate (Molecular Devices Corporation) with 64 apertures per well. Each concentration of test compound was tested in duplicate wells. Amphotericin B was used to obtain electrical access to the cell interior at a final concentration of 200 μg/mL. Human ether-à-gogo related gene (hERG) currents were measured with a prepulse to +40 mV (2 s) from the holding potential of −80 mV, followed by a step to −50 mV (2 s) to elicit the deactivating tail currents, before returning to the holding potential for 1s. Compounds were incubated for 600s between the pre- and post-compound reads. The external recording solution used was 130 mM Na Gluconate, 20 mM NaCl, 4 mM KCl, 1 mM MgCl2, 1.8 mM CaCl2, 10 mM Hepes, 5 mM Glucose, pH to 7.3 with NaOH. All data were filtered for seal quality, seal drop, and current amplitude. The maximum current amplitude of the 3rd pulse tail current was calculated before (Pre) and after (Post) compound addition and the amount of block assessed by dividing the Post-compound current amplitude by the Pre-compound current amplitude.

[1] = test system: EVSA-T (human breast carcinoma); assay: Anti-proliferative activity, Alamar Blue assay, EVSA-T; assay type: cell-based; conditions: 72 hours compound, read-out: EVSA-T prolif
Protocol: (§1) The method is based on the ability of viable cells to reduce resazurin to its fluorescent product resorufin. For each proliferation assay cells are plated onto 96 well plates and allowed to recover for 16 hours prior to the addition of inhibitor compounds (in 0.1% DMSO v/v) for a further 72 hours.
(§2) The anti-proliferative activities of compounds of the invention can be determined by measuring the ability of the compounds to inhibit growth in 3 cancer cell lines: • EVSA-T (human breast carcinoma) DSMZ cat. no.

[2] = test system: MDA-MB-231 (human breast carcinoma); assay: Anti-proliferative activity, Alamar Blue assay, MDA-MB-231; assay type: cell-based; conditions: proliferation, 72 hours compound
Protocol: as §1, §2

[3] = target: T2, XIAP-Caspase-9 in HEK293-XIAP-Caspase-9 cells (Homo sapiens, UniProt P98170); assay: HEK293-XIAP-Caspase-9 immunoprecipitation (IP) MSD assay; assay type: cell-based; conditions: compound 2 h at 37° C.; read-out: HEK293-X-C9 IP
T2 construct: FLAG; expressed in transfected cells
Protocol: Stable HEK293-XIAP-Caspase-9 cells were plated out into 96-well plates [200 μl/well at 1×10^6 cells/mL in cultured complete medium (DMEM+10% FBS+0.5 mg/mL Geneticin (Invitrogen)] and left overnight at 37° C. to recover. Compounds were added to duplicate wells in 0.1% DMSO for 2 h at 37° C. Cells were lysed in 50 μl 1×MSD lysis buffer (1% Triton X-100 in 20 mM Tris·Cl (pH 7.6), 150 mM NaCl including protease inhibitors) for 20 min rocking at room temperature. Streptavidin high bind MSD plate (L15SB-2) were coated with biotinylated anti-FLAG M2 antibody (Sigma F9291) at 25 μl/well with a 5 μg/mL dilution of antibody in PBS for 1 h, shaking; followed by blocking for 1 h with 150 μl 3% BSA/TBST. Cell lysate (25 μl) was added to the 96-well anti-FLAG coated MSD plate and placed on shaker for 4 h at room temperature. […] Plates were washed 4 times with 150 μl TBST, and 150 μl/well 1×MSD read buffer (R92TC-2) added before reading each plate.
EC50 values were determined from dose-response plots using nonlinear least-squares analysis.

SK-MEL-28 = assay: Combination protocol for apoptosis, SK-MEL-28; assay type: cell-based, human
Protocol: (§3) After incubation of the cells with compound(s) with or without 1 ng/ml TNF-α (R&D Systems) for 24 h in a CO2 incubator at 37° C., cells were harvested by trypsinisation. The cell pellet from the 24-well plate was resuspended in 100 μl FACS buffer (PBS+1% fetal bovine serum). NucView488 reagent (from Biotium) was added to a final concentration of 2 μM. The plate was incubated in the dark for 30 minutes before measuring fluorescent stained cells in a Guava easyCyte HT cytometer (Millipore). Cleaved caspase-3 staining was recorded in the FL1 channel, with unstained and DMSO control wells being used to set the gated stained and unstained cell populations.

A375 = assay: Combination protocol for apoptosis, A375; assay type: cell-based, human; conditions: for % Apoptosis Combination: 24 h
Protocol: as §3, with “Melanoma cell lines were plated out in duplicate wells of 24-well plates at 0.5×10^6 cells/ml the day before treatment to allow them to adhere. After” for “After”
No increase in apoptosis was seen over this time scale with the combination agent shown in the first column of the table alone (with or without TNF-α)—data not shown.

T1 sequence (Q12809 whole entry): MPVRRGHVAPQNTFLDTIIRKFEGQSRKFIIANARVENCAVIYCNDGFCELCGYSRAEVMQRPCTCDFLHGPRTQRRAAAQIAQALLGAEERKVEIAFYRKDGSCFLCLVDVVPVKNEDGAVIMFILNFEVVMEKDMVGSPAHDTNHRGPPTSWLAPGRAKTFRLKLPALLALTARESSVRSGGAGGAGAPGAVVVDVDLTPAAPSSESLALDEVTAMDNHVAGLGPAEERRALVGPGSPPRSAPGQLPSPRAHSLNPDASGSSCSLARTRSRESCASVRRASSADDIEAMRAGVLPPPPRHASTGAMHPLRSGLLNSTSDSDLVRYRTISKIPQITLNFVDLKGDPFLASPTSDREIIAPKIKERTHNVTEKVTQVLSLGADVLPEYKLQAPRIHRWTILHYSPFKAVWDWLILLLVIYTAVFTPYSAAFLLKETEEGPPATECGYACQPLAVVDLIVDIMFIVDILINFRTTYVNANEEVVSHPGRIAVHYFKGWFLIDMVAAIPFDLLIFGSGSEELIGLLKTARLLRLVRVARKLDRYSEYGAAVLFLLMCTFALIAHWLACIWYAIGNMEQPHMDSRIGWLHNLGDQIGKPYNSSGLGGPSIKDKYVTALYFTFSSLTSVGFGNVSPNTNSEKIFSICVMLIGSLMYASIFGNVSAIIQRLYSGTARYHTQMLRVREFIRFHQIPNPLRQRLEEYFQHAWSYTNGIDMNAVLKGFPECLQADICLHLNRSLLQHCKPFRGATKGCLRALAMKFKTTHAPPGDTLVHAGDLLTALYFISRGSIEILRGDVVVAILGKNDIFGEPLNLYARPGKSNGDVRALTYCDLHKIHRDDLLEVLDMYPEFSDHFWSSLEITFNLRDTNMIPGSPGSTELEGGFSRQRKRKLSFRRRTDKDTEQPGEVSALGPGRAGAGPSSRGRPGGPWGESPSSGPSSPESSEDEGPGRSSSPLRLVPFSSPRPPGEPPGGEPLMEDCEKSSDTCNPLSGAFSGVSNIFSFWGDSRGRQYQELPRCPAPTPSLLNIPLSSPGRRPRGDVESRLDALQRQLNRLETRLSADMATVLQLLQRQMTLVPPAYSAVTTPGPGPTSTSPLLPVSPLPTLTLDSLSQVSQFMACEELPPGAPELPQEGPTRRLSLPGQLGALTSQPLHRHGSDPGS
T2 sequence (P98170 whole entry): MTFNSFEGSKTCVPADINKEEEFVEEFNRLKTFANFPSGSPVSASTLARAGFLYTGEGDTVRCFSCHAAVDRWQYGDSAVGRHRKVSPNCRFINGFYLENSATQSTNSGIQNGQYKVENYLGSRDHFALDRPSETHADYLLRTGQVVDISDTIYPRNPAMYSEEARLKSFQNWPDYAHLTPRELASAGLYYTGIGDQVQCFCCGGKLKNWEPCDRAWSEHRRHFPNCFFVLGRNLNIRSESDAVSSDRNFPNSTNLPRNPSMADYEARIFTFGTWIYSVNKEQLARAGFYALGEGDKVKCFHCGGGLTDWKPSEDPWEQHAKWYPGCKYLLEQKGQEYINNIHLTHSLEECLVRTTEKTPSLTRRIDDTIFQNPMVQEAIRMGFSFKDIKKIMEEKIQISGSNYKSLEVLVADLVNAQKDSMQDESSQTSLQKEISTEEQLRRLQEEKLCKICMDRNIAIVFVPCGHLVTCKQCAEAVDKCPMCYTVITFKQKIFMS

Structure (SMILES): CCCCn1cc2c(cc1=O)C(C)(C)CN2C(=O)CN1C[C@@H](C)NC[C@@H]1CN1[C@H](C)COC[C@H]1C [Example 35, 6-Butyl-1-{2-[(2R,5R)-2-{[(3R,5R)-3,5-dimethylmorpholin-4-yl]methyl}-5-methylpiperazin-1-yl]acetyl}-3,3-dimethyl-1H,2H,3H,5H,6H-pyrrolo[2,3-c]pyridin-5-one dihydrochloride]
- hERG PPC (PI) (hERG ion channel; @ 1000 μM): 53% @ 1000
- EC50 ([1]; Homo sapiens, EVSA-T, 72 h): 16 nM
- EC50 ([2]; Homo sapiens, MDA-MB-231, 72 h): 130 nM
- EC50 [3]: 13 nM

Structure (SMILES): CCCCc1cc2c([nH]c1=O)C(C)(C)CN2C(=O)CN1C[C@@H](C)NC[C@@H]1CN1C[C@H](C)OC[C@H]1C [Example 37, 6-Butyl-1-{2-[(2R,5R)-2-{[(2S,5R)-2,5-dimethylmorpholin-4-yl]methyl}-5-methylpiperazin-1-yl]acetyl}-3,3-dimethyl-1H,2H,3H,4H,5H-pyrrolo[3,2-b]pyridin-5-one dihydrochloride]
- hERG PPC (PI) (hERG ion channel; @ 500 μM): 63% @ 500
- EC50 ([1]; Homo sapiens, EVSA-T, 72 h): 3.2 nM
- EC50 ([2]; Homo sapiens, MDA-MB-231, 72 h): 18 nM
- EC50 [3]: 7.4 nM

Structure (SMILES): COC(CO)c1nc2c(cc1Cc1ccc(F)cc1)N(C(=O)CN1C[C@@H](C)NC[C@@H]1CN1[C@H](C)COC[C@H]1C)CC2(C)C (single isomer, unassigned) [Example 36, 2-[(2R,5R)-2-{[(3R,5R)-3,5-Dimethylmorpholin-4-yl]methyl}-5-methylpiperazin-1-yl]-1-{6-[(4-fluorophenyl)methyl]-5-((R or S)-2-hydroxy-1-methoxyethyl)-3,3-dimethyl-1H,2H,3H-pyrrolo[3,2-b]pyridin-1-yl}ethan-1-one]
- IC50 (hERG ion channel; CHO K1 cells stably transfected with hERG): 420000 nM
- EC50 [1]: 0.48 nM
- EC50 ([1]; Homo sapiens, EVSA-T, 72 h): 0.38 nM
- EC50 ([2]; Homo sapiens, MDA-MB-231, 72 h): 2.5 nM
- EC50 [2]: 2.7 nM
- EC50 [3]: 2.6 nM and 4.2 nM

Structure (SMILES): C[C@@H]1CN(CC(=O)N2CC(C)(C)c3nc(CO)c(Cc4cccc(F)c4)cc32)[C@@H](CN2CCOC[C@H]2C)CN1 [Example 15, 1-{6-[(3-Fluorophenyl)methyl]-5-(hydroxymethyl)-3,3-dimethyl-1H,2H,3H-pyrrolo[3,2-b]pyridin-1-yl}-2-[(2R,5R)-5-methyl-2-{[(3R)-3-methylmorpholin-4-yl]methyl}piperazin-1-yl]ethan-1-one dihydrochloride]
- hERG PPC (PI) (hERG ion channel; @ 100 μM): 55% @ 100
- EC50 ([1]; dihydrochloride): 7.8 nM
- EC50 ([1]; Homo sapiens, EVSA-T, 72 h): < 10 nM
- EC50 [3]: 4.9 nM

Structure (SMILES): C[C@@H]1CN(CC(=O)N2CC(C)(C)c3[nH]c(=O)c(Cc4ccc(F)cc4F)cc32)[C@@H](CN2CCOC[C@H]2C)CN1 [Example 8, 6-[(2,4-Difluorophenyl)methyl]-3,3-dimethyl-1-{2-[(2R,5R)-5-methyl-2-{[(3R)-3-methylmorpholin-4-yl]methyl}piperazin-1-yl]acetyl}-1H,2H,3H,4H,5H-pyrrolo[3,2-b]pyridin-5-one dihydrochloride]
- hERG PPC (PI) (hERG ion channel; @ 300 μM): 39% @ 300
- EC50 [3]: 5.4 nM

Structure (SMILES): CCCS(=O)(=O)Nc1ccc(F)c(C(=O)c2c[nH]c3ncc(-c4ccc(Cl)cc4)cc23)c1F [Vemurafenib, reference compound]
- % Apoptosis Combination (SK-MEL-28; agent 1 μM with Example 2 1 μM + 1 ng/ml TNF-α, 24 h): 87.3%
- Fold Increase (SK-MEL-28; combination (agent 1 μM) relative to Example 2 1 μM + TNF-α alone): 1.7
- % Apoptosis Combination (A375; agent 4 μM with Example 2 1 μM + 1 ng/ml TNF-α): 61.3%
- Fold Increase (A375; combination (agent 4 μM) relative to Example 2 1 μM + TNF-α alone): 2.0

Structure (SMILES): C[C@@H]1CN(CC(=O)N2CC(C)(C)c3nc(C(O)CO)c(Cc4ccc(F)cc4)cc32)[C@@H](CN2[C@H](C)COC[C@H]2C)CN1 (single isomer, unassigned) [Example 21, 1-[5-((R or S)-1,2-Dihydroxyethyl)-6-[(4-fluorophenyl)methyl]-3,3-dimethyl-1H,2H,3H-pyrrolo[3,2-b]pyridin-1-yl]-2-[(2R,5R)-2-{[(3R,5R)-3,5-dimethylmorpholin-4-yl]methyl}-5-methylpiperazin-1-yl] ethan-1-one dihydrochloride]
- hERG PPC (PI) (hERG ion channel; @ 100 μM): 35% @ 100
- EC50 [3]: 2.1 nM

Structure (SMILES): COCC(O)c1nc2c(cc1Cc1ccc(F)cc1)N(C(=O)CN1C[C@@H](C)NC[C@@H]1CN1CCOC[C@H]1C)CC2(C)C (single isomer, unassigned) [Example 26, 1-{6-[(4-Fluorophenyl)methyl]-5-((R or S)-1-hydroxy-2-methoxyethyl)-3,3-dimethyl-1H,2H,3H-pyrrolo[3,2-b]pyridin-1-yl}-2-[(2R,5R)-5-methyl-2-{[(3R)-3-methylmorpholin-4-yl]methyl}piperazin-1-yl] ethan-1-one trihydrochloride]
- hERG PPC (PI) (hERG ion channel; @ 31.3 μM): 41% @ 31.3
- EC50 [3]: 12 nM

Structure (SMILES): CCCCc1cc2c(n(C)c1=O)C(C)(C)CN2C(=O)CN1C[C@@H](C)NC[C@@H]1CN1[C@H](C)COC[C@H]1C [Example 33, 6-Butyl-1-{2-[(2R,5R)-2-{[(3R,5R)-3,5-dimethylmorpholin-4-yl]methyl}-5-methylpiperazin-1-yl]acetyl}-3,3,4-trimethyl-1H,2H,3H,4H,5H-pyrrolo[3,2-b]pyridin-5-one dihydrochloride]
- hERG PPC (PI) (hERG ion channel; @ 31.3 μM): 33% @ 31.3
- EC50 [3]: 2.4 nM

Structure (SMILES): CC(=O)Nc1cccc(-n2c(=O)n(C3CC3)c(=O)c3c(Nc4ccc(I)cc4F)n(C)c(=O)c(C)c32)c1 [Trametinib]
- % Apoptosis Combination (A375; agent 0.1 μM with Example 2 0.1 μM + 1 ng/ml TNF-α): 52.3%
- Fold Increase (A375; combination (agent 0.1 μM) relative to Example 2 0.1 μM + TNF-α alone): 3.6

Structure (SMILES): COC(CO)c1nc2c(cc1Cc1ccc(F)cc1)N(C(=O)CN1C[C@@H](C)NC[C@@H]1CN1CCOC[C@H]1C)CC2(C)C (single isomer, unassigned) [Example 27, 1-{6-[(4-Fluorophenyl)methyl]-5-((R or S)-2-hydroxy-1-methoxyethyl)-3,3-dimethyl-1H,2H,3H-pyrrolo[3,2-b]pyridin-1-yl}-2-[(2R,5R)-5-methyl-2-{[(3R)-3-methylmorpholin-4-yl]methyl}piperazin-1-yl] ethan-1-one trihydrochloride]
- hERG PPC (PI) (hERG ion channel; @ 1000 μM): 55% @ 1000
- EC50 [3]: 6 nM and 9.9 nM

Structure (SMILES): C[C@@H]1CN(CC(=O)N2CC(C)(C)c3c2cc(Cc2ccc(F)cc2)c(=O)n3C)[C@@H](CN2C[C@H](C)OC[C@H]2C)CN1 [Example 18, 1-{2-[(2R,5R)-2-{[(2S,5R)-2,5-Dimethylmorpholin-4-yl]methyl}-5-methylpiperazin-1-yl]acetyl}-6-[(4-fluorophenyl)methyl]-3,3,4-trimethyl-1H,2H,3H,4H,5H-pyrrolo[3,2-b]pyridin-5-one trihydrochloride]
- hERG PPC (PI) (hERG ion channel; @ 75 μM): 44% @ 75
- EC50 [3]: 1.2 nM

From patent US12202828B2, “Bicyclic heterocycle compounds and their uses in therapy” (ASTEX THERAPEUTICS LIMITED, priority 2013, dated 2025)
